{"source": "patent US20230220354A1", "about": "“COMPOSITIONS AND METHODS FOR CONTROLLING CELLULAR IDENTITY” (King Abdullah University of Science and Technology, priority 2020, published 2023)", "key": {"[1]": {"test_system": "primary cultures of mature astrocytes", "experiment": "Customization of C1-MIM concentrations: relative gene expression (Gfap, Cd44) by rtPCR in mature astrocytes", "type": "cell-based, mouse", "method": "Astrocytes were derived from cortical tissues postnatal or differentiated from dissociated neurospheres after a second or third passage, as described herein. For postnatal astrocytes, cortices were isolated from P4 mice pups to get single cells and were plated as described by Schildge et al.^51Confluent cultures were sorted with Anti-GLAST (ACSA-1) Microbead kit according to manufacturer instructions. For inducing differentiation from NSCs, single cells derived from neurospheres were exposed to astrocyte media. In both cases, cells were plated over pre-treated Poly-L-Lysine plates or Poly-D-Lysine glass-coverslips using Astrocyte Differentiation Medium (DMEM-F12, 10% heat-inactivated FBS, lx B27, and 1X Glutamax).\nCell cultures seeded on adherent conditions were kept on their respective differentiation media until they reach a mature phenotype (defined by the expression of markers specific to each cell type). When cultures reached around 80-90% confluence, the differentiation media was removed, cells were washed twice with PBS and the media was replaced with CI-MIM. The composition of C1-MIM includes up to 6 metabolites (details of the combinations used are specified in figure legends) including Methionine, Threonine, Glycine, Putrescine, Cysteine [5mM], and S-adenosylmethionine [0.05mM], which are dissolved in a base medium (BM) composed by DMEM-F12 plus Neurobasal [1:1], supplemented with 1X B27, 1X N2. […] In all cases, from the same batch of each cell culture, a control culture was also washed with PBS but maintained with their own differentiation media along all the time of the treatment. Cells in this schema were fed every other day. Cells were monitored daily to attest to the change in morphology. Cells were collected on the fifth day or earlier after starting the MIM treatment (indicated in each specific case in the figure legend) for further analyses, as indicated in the figure legends of each experimental approach. Viability of cultures at the time of collection was measured by trypan blue, and all cases above 85% viable cells were processed for downstream analyses.\nTotal RNA was isolated from cells grown on Petri dish at the indicated time points, using the RNeasy Plus Mini kit QIAGEN, according to the manufacturer's protocol, including a DNA-removal step with DNAseI. Amount and purity of RNA were assessed using a NanoDrop spectrophotometer (Nanodrop Technologies); at least 500 ng of total RNA was used to synthesize cDNA by reverse transcription, using Maxima™ H\nMinus cDNA Synthesis Master Mix. 2.5-10 ng of cDNA was used in the following qPCR performed on a CFX384 thermal cycler (Bio-Rad) using the SsoAdvanced™ Universal SYBR® Green Supermix. Results were normalized to at 193 least one reference genes β-Actin, RPL38, GAPDH, Gus, CTCF, and Natl, specified per figure), selected for their highest stability among a pool of common housekeeping genes. Primers were designed by NCBI/Primer-BLAST primers designing tool (Table 1). Statistical analysis of the results was performed using the 2ACt method^s. Results were expressed relative to the expression values of the experimental control.\nThe cocktail customization was performed in primary cultures of mature astrocytes, between the second and the fourth passage. Those cells were maintained at least 8 days in culture before passaging. […] We tested individual metabolites at different concentrations in a serum-free medium (base media, BM). […]"}, "astrocytes": {"test_system": "astrocytes", "experiment": "Lethality of individual metabolites for astrocytes in serum-free base medium", "type": "cell-based, mouse", "conditions": "millimolar (high) concentrations", "method": "The cocktail customization was performed in primary cultures of mature astrocytes, between the second and the fourth passage. Those cells were maintained at least 8 days in culture before passaging. We corroborated the expression of Gfap before starting the experiment by immunocytochemistry (FIG. 1G). We tested individual metabolites at different concentrations in a serum-free medium (base media, BM). BM contained equivalent volumes of DMEM-F12 and Neurobasal, plus the supplements N2 and B27 at 1X. Notes about specific molecules added. S-adenosylmethionine (SAM) at millimolar concentrations was lethal for astrocytes, which is in line with the lower physiological concentrations usually found for this metabolite compared to others. Cysteine is high-sensitive to oxidation, which is manifested as white flake precipitation, a high-concentrated stock solution [2500mM] dissolved in ddH2O with pH slightly acid (5.5-6) was prepared to prevent this issue. We corroborated a pH always close to 7.4 in the cells maintained in vitro, before and after treating them with cocktails containing the diluted solution of cysteine."}}, "note": "“Also recorded” adds a separate entry of the source.", "data": [{"compound": "NCCCCN", "note": "[putrescine]", "values": [{"measurement": "Gfap expression", "setting": "[1]; separate metabolite at 1mM", "result": "repressed"}]}, {"compound": "FGF2: growth factor added to improve cell survival in serum-free medium [reference compound]", "values": [{"measurement": "Gfap expression", "setting": "[1]; 20ng/mL", "result": "did not inhibit"}, {"measurement": "Gfap expression", "setting": "[1]; concentrations lower than 20ng/mL", "result": "potentiate"}]}, {"compound": "C[S+](CC[C@H](N)C(=O)[O-])C[C@H]1O[C@@H](n2cnc3c(N)ncnc32)[C@H](O)[C@@H]1O", "note": "(stereo partly shown) [S-adenosylmethionine]", "values": [{"measurement": "lethality / toxicity for astrocytes", "setting": "astrocytes", "result": "lethal; also recorded: toxic"}, {"measurement": "lethality / toxicity for astrocytes", "setting": "astrocytes; listed as SAM", "result": "lethal"}]}, {"compound": "N[C@@H](CS)C(=O)O", "note": "[cysteine]", "values": [{"measurement": "Gfap expression", "setting": "[1]; individual metabolite, range of concentrations (0.025 to 10mM)", "result": "potentiates"}]}, {"compound": "C[C@@H](O)[C@H](N)C(=O)O", "note": "[threonine]", "values": [{"measurement": "Gfap expression", "setting": "[1]; separate metabolite at 1mM", "result": "repressed"}]}]}
